Assays:
[1] = molecular target: Bcl-2 (Homo sapiens, UniProt P10415); assay: SPR binding to immobilized Bcl-2; conditions: for Kd: SPR, 25 °C, 2-site fit, highest affinity site
Description: FastStep experiments were performed with a SensiQ Pioneer apparatus. Bcl-2 immobilization on COOH5 sensorchips was carried out essentially as previously reported, [40]. All the experiments were carried out at 25 °C in degassed HEPES 20 mM, pH 7.4, NaCl 150 mM, 0.005% surfactant P20 + 2% DMSO (HBSP2%D). […] Each sensorgram is the average of at least three experiments. The decrease in Response Units (RU) after 165 s indicates analyte dissociation from the immobilized Bcl-2 upon HSBP2%D buffer injection. Control SPR experiments were carried out measuring sensorgrams on Bcl-xL and Mcl-1 (ligands) immobilized on COOH5 sensorchips as previously reported at 25 °C in degassed HBSP2%D buffer. […] Each sensorgram is the average of at least three experiments. The decrease in RU after 180 s indicates analyte dissociation from the immobilized ligands upon HSBP2%D buffer injection. Kinetic evaluation of the sensorgrams was carried out using the Qdat 4.0 program; best fittings were obtained with 2 sites and indicated in red (reported KD values refer to dissociation constants of the highest affinity site).
Figure 2 SPR analysis of the interaction between putative inhibitors of Bcl-2 anti-apoptotic members and Bcl-2 protein. Bcl-2 was immobilized via amine coupling onto a COOH5 sensorchip; Bcl-2 family inhibitors (analytes) were injected at a flow rate = 100 μL/min, at the following concentrations. 0-30 s: 0.625 μM; 31-60 s: 1.25 μM; 61-90 s: 2.5 μM; 91-120 s: 5 μM; 121-150 s: 10 μM; 151-165 s: 20 μM. The increase in Response Units (RU) relative to baseline indicates complex formation between the immobilized Bcl-2 ligand and the analytes upon Bcl-2 family inhibitors injection. The decrease in RU after 165 s indicates analyte dissociation from the immobilized Bcl-2 upon buffer injection. Full fittings with 2 sites are indicated in red. The fitted KD values are the following.

[2] = system: MDA-MB-231 breast carcinoma cells; assay: Cell viability by MTT, MDA-MB-231; type: cell-based, Human; conditions: 20 µM for 72 h, vs control
Description: The effect of compounds on cell viability was performed by measuring 3-[4,5-dimethylthiazol-2-yl]-2,5-diphenyltetrazolium bromide inner salt (MTT, Sigma-Aldrich) dye absorbance (solid tumor cells) or by quantization of ATP present in metabolically active cells using CellTiter-Glo® Luminescent (Promega, Fitchburg, Wisconsin, USA) (hematologic cells) following manifacturer's protocol. To evaluate the cell colony-forming ability, cell suspension from different samples was seeded into 60-mm Petri dishes. After 10 days, colonies were stained with 2% methylene blue in 95% ethanol and counted (1 colony > 50 cells). The surviving fractions were calculated as the ratio of absolute survival of the treated sample/survival of DMSO-treated control sample.
Figure 4 Analysis of the effect of IS20 and IS21 on cell viability, clonogenic ability and tumor sphere formation in cancer cells. […] (B) Representative images and quantification of clonogenic ability evaluated in M14 and H1299 cells treated with IS20 or IS21 (20 μM for 72 h). […] (C) Quantification of tumor sphere formation of M14 and H1299 cells treated with IS20 or IS21 (20 μM for 72 h). […] (A-C) Data are reported as mean ± SD of three independent experiments. p-values were calculated between control (Ctrl) and treated cells, ** p < 0.001 and *** p < 0.0001.

[3] = system: MDA-MB-231 cells; assay: Western blot of PARP1 cleavage, MDA-MB-231; type: cell-based, Human; conditions: 72 h
Description: Western blot analyses of total protein extracts were performed as previously described. Immunodetection was performed using antibodies directed to poly (ADP-ribose) polymerase (PARP; BD Biosciences San Diego, CA, USA), LC3B (Cell Signaling Technology, Danvers, MA), HSP72/73 (Calbiochem, EMD Biosciences, La Jolla, CA), Bcl-2 (SC-509, Santa Cruz Biotechnology Inc, Dallas, TX, USA), Bcl-xL (SC-271121, Santa Cruz Biotechnology Inc), Mcl-1 (SC-12756, Santa Cruz Biotechnology Inc) α-tubulin (Santa Cruz Biotechnology Inc) actin (Sigma-Aldrich, St. Louis, Missouri, USA). Anti-rabbit or anti-mouse immunoglobulin G-horseradish peroxidase-conjugated antibodies (Amersham Biosciences, Freiburg, Germany) were used as secondary antibody. Images were acquired by Image Lab Software (Bio-Rad, Hercules, CA, USA), using a ChemiDoc System instrument (Bio-Rad). […]
Figure 5 Analysis of apoptosis induction by IS20 and IS21 in leukemia, melanoma and NSCLC cells. […] (G) Flow cytometric quantification of cells in the subG1 peak of cell cycle distribution by propidium iodide staining in HL60 cell line treated with IS20 or IS21 (20 μM for 24 h) and in M14, H1299 and MDA-MB-231 cell lines treated with IS20 or IS21 (20 μM for 72 h). Data are reported as mean ± SD of three independent experiments. p-values were calculated between control (Ctrl) and treated cells, * p < 0.05. […]

Bcl-2, sequence (P10415 whole entry): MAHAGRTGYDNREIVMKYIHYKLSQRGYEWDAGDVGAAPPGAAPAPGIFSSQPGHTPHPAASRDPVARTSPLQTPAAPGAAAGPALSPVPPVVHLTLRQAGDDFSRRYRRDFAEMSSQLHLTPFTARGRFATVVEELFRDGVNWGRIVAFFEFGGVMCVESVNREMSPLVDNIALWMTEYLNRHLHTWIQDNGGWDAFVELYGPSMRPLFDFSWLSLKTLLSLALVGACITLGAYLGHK

Compound	Kd [1] [nM]	selectivity for Bcl-2 than for Mcl-1 ([1]; selectivity index from KD) [times]	cell viability MDA-MB-231 [2]	PARP1 cleavage, MDA-MB-231 [3]	selectivity for Bcl-2 than for Bcl-xL ([1]; selectivity index from KD)
CCCCOc1ccc(C2/C(=C(\O)c3ccc4c(c3)CC(C)O4)C(=O)C(=O)N2c2nnc(SCc3ccc(Cl)cc3)s2)cc1OCC (stereo not drawn) [IS20]	320 ± 90	12	not significantly perturbed	not evident	
CCCCCOc1ccc(C2/C(=C(\O)c3ccc4c(c3)CC(C)O4)C(=O)C(=O)N2c2nnc(SCc3ccc(Cl)cc3)s2)cc1OCC (stereo not drawn) [IS21]	190 ± 70	~6	not significantly perturbed	not evident	about 2.7 times

From article PMC8899577, “Targeting the anti-apoptotic Bcl-2 family proteins: machine learning virtual screening and biological evaluation of new small molecules” (Theranostics, 2022)
